Test results published in article PMC3581553, “New Approaches of PARP-1 Inhibitors in Human Lung Cancer Cells and Cancer Stem-Like Cells by Some Selected Anthraquinone-Derived Small Molecules” (PLoS ONE, 2013).
Read-outs that look alike come from different tables or passages of the source.

Tests used:
HEL299 cells = test: MTT cytotoxicity assay, HEL299 normal fibroblasts; assay type: cell-based; details: Homo sapiens, HEL 299, 48 h of drug exposure
Description: (§1) Non-small cell lung cancer cells A549 and Oct-4- and Nanog-overexpressed A549 clone (clone #3; A3), presented the properties of cancer stem-like cells, as well as epithelial-mesenchymal transdifferentiation, according to our previous study. They were grown in the same conditions as RPMI 1640 media supplemented with 10% fetal bovine serum (FBS), 100 units/mL penicillin, […] streptomycin, 1 mM sodium pyruvate, 2 mM l-glutamine and 1% non-essential amino acid (NEAA) in a humidified atmosphere with 5% CO2 at 37°C. Normal fibroblast cells HEL299 from American Type Culture Collection (ATCC) were grown in MEM media supplemented with 10% FBS, 100 units/mL penicillin, […] streptomycin, 1 mM sodium pyruvate, 2 mM l-glutamine and 1% NEAA, in a humidified atmosphere with 5% CO2 at 37°C.
(§2) The tetrazolium reagent (MTT; 3-(4,5-dimethylthiazol-2-yl)-2,5-diphenyl-tetrazolium bromide, USB) was designed to yield a colored formazan upon metabolic reduction by viable cells, [61]. Approximately 5×10^4 cells were plated onto each well of a 24-well plate and incubated in 5% CO2 at 37°C for 24 hours. To assess the in vitro cytotoxicity, each compound was dissolved in DMSO and prepared immediately before the experiments and then was diluted into the complete medium before being added to cell cultures. Test compounds were then added to the culture medium in various designated concentrations. After 48 hours, an amount of 100 µl of MTT was added to each well, and the samples were incubated at 37°C for 2 h. 100 µl DMSO was added to each well. The absorbency at 560 nm and reference absorbency at 670 nm were measured using an ELISA reader.

HOP-62 = test: NCI-60 drug screen (SRB), NSCLC line HOP-62; assay type: cell-based, human; details: for GI50 / CC50: Homo sapiens; for CC50: read-out: LC50 (the source's name)
Description: (§3) As a primary screening, seven selected compounds were submitted to the National Cancer Institute (NCI) cell lines screen for evaluation of their anticancer activity. From the data analysis, it follows that approximately 95% of the actives from the 60 cell lines screen can be identified. The detailed methods used for the 60 cell lines panel have been described elsewhere [54]–[59]. Briefly, cellular protein levels were determined after 48 hours of drug exposure by SRB colorimetry. Through the use of a time zero cell control, the cell growth can be determined for each cell line thus allowing calculations of GI50, TGI, and LC50. Comparison to plates not exposed to drug permits determination of concentration and times of exposure conferring GI50, TGI, and LC50. […] By these criteria, seven compounds reported from our compounds bank were all active and passed on for evaluation in the full panel of 60 human tumor cell lines. The panel is organized into nine subpanels representing diverse histology: leukemia, melanoma, and cancers of the lung, colon, kidney, ovary, breast, prostate, and central nervous system.

PARP-1 = biological target: T1, PARP-1 (Homo sapiens, UniProt P09874); test: PARP inhibitory assay (histone-coated plate, colorimetric); assay type: biochemical
T1 construct: purchased
T1 sequence (P09874 whole entry): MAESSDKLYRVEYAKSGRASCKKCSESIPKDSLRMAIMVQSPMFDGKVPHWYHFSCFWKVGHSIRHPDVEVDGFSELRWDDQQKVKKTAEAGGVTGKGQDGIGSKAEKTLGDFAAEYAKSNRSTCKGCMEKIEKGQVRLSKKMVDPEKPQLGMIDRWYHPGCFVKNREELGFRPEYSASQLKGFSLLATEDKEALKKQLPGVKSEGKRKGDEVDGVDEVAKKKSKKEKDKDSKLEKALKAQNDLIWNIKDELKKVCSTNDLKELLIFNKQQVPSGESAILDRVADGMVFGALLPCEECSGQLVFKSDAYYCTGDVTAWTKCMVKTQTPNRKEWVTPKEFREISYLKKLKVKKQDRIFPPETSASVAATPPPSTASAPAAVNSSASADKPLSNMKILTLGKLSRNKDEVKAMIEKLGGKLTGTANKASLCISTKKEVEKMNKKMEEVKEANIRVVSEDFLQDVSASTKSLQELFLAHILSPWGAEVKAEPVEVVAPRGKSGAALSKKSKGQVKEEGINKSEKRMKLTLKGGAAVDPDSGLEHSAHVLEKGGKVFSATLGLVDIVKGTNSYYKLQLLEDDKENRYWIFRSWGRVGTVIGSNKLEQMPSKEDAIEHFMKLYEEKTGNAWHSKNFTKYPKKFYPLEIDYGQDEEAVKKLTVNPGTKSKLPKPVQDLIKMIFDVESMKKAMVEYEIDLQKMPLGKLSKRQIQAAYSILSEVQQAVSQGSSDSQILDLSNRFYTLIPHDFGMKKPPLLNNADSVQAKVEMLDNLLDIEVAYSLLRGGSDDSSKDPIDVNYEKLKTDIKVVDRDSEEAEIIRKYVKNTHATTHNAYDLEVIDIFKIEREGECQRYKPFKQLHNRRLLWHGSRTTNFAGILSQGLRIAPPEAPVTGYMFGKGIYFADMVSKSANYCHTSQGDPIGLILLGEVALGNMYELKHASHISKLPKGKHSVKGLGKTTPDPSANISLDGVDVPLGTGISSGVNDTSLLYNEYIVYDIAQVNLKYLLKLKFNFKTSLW
Description: We used histone-coated 96-well plate treated with seven putative PARP-1 inhibitors or well-known PARP-1 inhibitors (3-AB), and then added PARP enzyme to each well. PARP enzyme catalyzes the NAD-dependent addition of poly (ADP-ribose) to histone, and diluted Strp-HRP could bind to PARylation histone. TACS-Sapphire™ yielded blue under the HRP existence. In order to systematically evaluate the potential anticancer activity, the compounds were tested for their cytotoxicity in vitro against 60 human cancer lines in the NCI anticancer drug screen as well as for dose response curves and telomerase activity. Cell growth was analyzed by the MTT assay, with differences between dose-response curves analyzed non-parametrically. Telomerase activity was detected by a modified version of the PCR-based assay and TRAP assay. […] However, PARP inhibitory effects had no difference at 1 and 10 µM. As described above, NSC746364, NSC746366 and NSC749232 show dose-dependency only at low concentrations. […] NSC747854 had dose-dependent PARP inhibitory manners at three different concentrations, and reached the maximum inhibitory effect of 86% at 10 µM (Table 4). […] In this investigation, we continued to focus our attention on the role of NSC747854 and to understand the basis of pharmacophore selectivity. Of particular note is the significant difference with these selected compounds, compared with that of 3-AB and PJ-34. […] An electron-rich aromatic ring system, including a carboxamide group, should have at least a hydrogen atom on the amide nitrogen. The amidinium moiety is known to contribute to the stabilization of DNA recognition element through electrostatic and hydrogen bonding interactions. Therefore, hydrogen bonds are frequently used as recognition elements due to their directionality and also due to being attractive factors to the biological activity (Figure 1). Many classes of drugs have substantial curvature, high DNA affinity, binding to the minor-groove or major-groove, interference with DNA-associated enzymes (e.g. telomerase), and Poly (ADP-ribose) polymerase, PARP. […] This approach greatly expands the utility of the substituents and related pharmacophore for the construction of drugs in general. Therefore, it is desirable to design PARP inhibitors in accordance with various anticancer parameters. It was first reported that anthraquinone analogues are potent human PARP inhibitors.
Strip wells were removed from the wrapper and 50 µl of 1X PARP Buffer was added to each well to rehydrate the histones. They were incubated at room temperature for 30 minutes. The 1X PARP buffer was removed from the wells by tapping the strip wells on paper towels. The serial dilutions of inhibitor of interest were added to appropriate wells. The diluted PARP enzyme (0.5 unit/well) was then added to the wells containing inhibitor. They were incubated for 10 minutes at room temperature. The PARP Enzyme-High Specific Activity (PARP-HAS) standard was serially diluted in cold micro-tubes with 1X PARP buffer such that the total activity was 1 unit/25 µl, 0.5 units/25 µl, 0.25 units/25 µl, 0.1 units/25 µl, 0.05 units/25 µl, 0.025 units/25 µl, and 0.01 units/25 µl, respectively. The 25 µl of each standard was added to triplicate wells. The 25 µl of 1X PARP cocktail were distributed into each well by using a multichannel pipettor. The final reaction volume is 50 µl. They were incubated along with the strip wells at room temperature for 60 minutes. The strip wells were washed 2 times with 1X PBS +0.1% Triton X-100 (200 µl/well) followed by 2 washes with 1X PBS. All the liquid was removed following each wash by tapping strip wells onto paper towels. The 50 µl diluted Strep-HRP were added per well. They were incubated at room temperature for 60 minutes. The strip wells were washed 2 times with 1X PBS +0.1% Triton X-100 (200 µl/well) followed by 2 washes with 1X PBS. All the liquid was removed following each wash by tapping strip wells onto paper towels. […]

NCI-H23 = test: NCI-60 drug screen (SRB), NSCLC line NCI-H23; assay type: cell-based, human; details: for GI50 / CC50: Homo sapiens; for CC50: read-out: LC50 (the source's name)
Description: as §3

[1] = system: Oct-4- and Nanog-overexpressed A549 clone (A3); test: MTT cytotoxicity assay, A3 cells; assay type: cell-based; details: Homo sapiens, 48 h of drug exposure
Description: as §1, §2

[2] = 48 hours drug exposure, SRB, read-out: GI50
[3] = NCI in vitro 60-cell lines Drug Screen, read-out: -Log GI50 (converted)

SMILES	IC50 (HEL299 cells) [µM]	TGI (HOP-62; 48 hours drug exposure, SRB) [µM]	GI50 (HOP-62; [2]) [µM]	CC50 (HOP-62; 48 hours drug exposure, SRB) [µM]	GI50 (HOP-62; [3]) [µM]	inhibition at 0.1 µM (PARP-1) [%]	inhibition at 1 µM (PARP-1) [%]	inhibition at 10 µM (PARP-1; 10 µM) [%]	TGI (NCI-H23; 48 hours drug exposure, SRB) [µM]	GI50 (NCI-H23; [2]) [µM]	CC50 (NCI-H23; 48 hours drug exposure, SRB) [µM]	GI50 (NCI-H23; [3]) [µM]	IC50 [1] [µM]	PARP inhibitory activity (%) (PARP-1; 10 µM)
CN1CCN(Cc2nc3ccc4c(c3[nH]2)C(=O)c2ccccc2C4=O)CC1 [NSC749235]	19.6	30.5	19.4	95.4	9.33	40	28	58	30.1	10.7	84.8	10.7	7.67	–
O=C(CCN1CCCC1)Nc1ccc2c(c1)C(=O)c1cc(NC(=O)CCN3CCCC3)ccc1C2=O [NSC746366]	13.4	11.6	2.48	45.4	2.51	16	45	47	17.3	2.38	> 100	2.4	5.77	–
CCN(CC)CCC(=O)Nc1ccc2c(c1)C(=O)c1cc(NC(=O)CCN(CC)CC)ccc1C2=O [NSC746365]	7.19	5.80	1.73	24	1.74	50	56	51	3.55	1.53	8.27	1.51	5.21	–
CN(C)CC(=O)Nc1ccc2c(c1)C(=O)c1cc(NC(=O)CN(C)C)ccc1C2=O [NSC746364]	5.67	20.5	4.56	60.8	4.57	31	54	56	28.1	11	71.8	11	5.9	–
CN(C)CCCSc1nc2ccc3c(c2[nH]1)C(=O)c1ccccc1C3=O [NSC747854]	27.8	32.3	5.9	48.9	5.89	30	57	–	19.7	5.73	46.9	5.75	5.88	65
Cc1ccc(C(=O)Nc2c(NC(=O)CCl)ccc3c2C(=O)c2ccccc2C3=O)cc1 [NSC749232]	27.1	9.49	2.97	24.4	2.95	42	51	52	8.28	1.78	31.4	1.78	4.85	–
